The source of these data is PMC8778314, “A New Series of Indeno[1,2-c]pyrazoles as EGFR TK Inhibitors for NSCLC Therapy” (Molecules, 2022).

Each structure is given as a SMILES string.

The test system of data set [1] is peripheral blood mononuclear cells (PBMCs). In words: MTT cell viability assay, PBMCs. The note with it: for cytotoxicity towards PBMCs (in words): MTT, normal cells; for IC50: PBMC, 48 h, read-out: IC50 (µM) PBMCs.
Method: (§2) In experiments, K562 cells and PBMCs were cultured in 24-well and 96-well plates (Asahi Glass Co., Chiba, Japan) at 4 × 10^4 and 1 × 10^6 cells/mL concentrations, respectively, for 48 h. A549 cells were plated (24-well plate) at 1 × 10^4 cells/mL and incubated for 72 h (the optimal cell number was determined in our previous studies) [34, 35, 36]. The stock solutions of the compounds and erlotinib in concentrations ranging from 1 µM to 10 mM were prepared in DMSO (Wako Pure Chemical Industries, Osaka, Japan) and further diluted with fresh culture medium. The final DMSO concentration was adjusted as 1%, which had no effect on the cell viability [37].
(§3) Then, supernatants were discarded, and the formazan crystals were solubilized with a 100 μL DMSO addition. The absorbance of the solution was measured using an Infinite M1000 microplate reader (Tecan, Grödig, Austria) at a wavelength of 570 and 630 nm.
Another data set has as its target T1, HER2 (Homo sapiens, UniProt P04626).
T1 construct: purchased Promega Corporation
Kind of data set: Kinase selectivity profiling TK-1, HER2. The class given is biochemical. The note with it: 30 µM concentration. The protocol:
(§1) Manufacturer′s instructions (Promega Corporation, Madison, WI, USA) were applied for the kinase profiling assay protocol (TK-1 and TK-2) with small changes. According to this protocol, the kinase stocks in the kinase strips and their substrate stocks in the substrate strips were diluted with 95 µL of 2.5× kinase buffer and 15 µL of 100 µM ATP solutions, respectively. The kinase working stocks (2 µL), 2 µL of the ATP/substrate working stocks, and 1 µL of the tested compound solution (3–100 µM) and erlotinib solution (0.01–100 µM) or 5% DMSO solution in the 384-well plate were used for the kinase reactions. Following the 4 h of incubation at room temperature, the activity of kinases was screened by means of the ADP-Glo Kinase Assay (Promega Corporation, Madison, WI, USA) based on the manufacturer′s protocol. The Infinite M1000 microplate reader (Tecan, Grödig, Austria) was used to measure the kinase inhibitory effects of the compounds in a dose-response manner. Besides, the IC50 values of the tested compounds were determined using ImageJ software.

For another data set, the system named is A549 cells. Kind of data set: Annexin V/ethidium homodimer III staining assay (apoptosis). The class given is cell-based, human. The note with it: IC50 concentrations, 15 h. The protocol: Then, an apoptotic/necrotic cell detection kit (PromoKine, Heidelberg, Germany) was used according to manufacturer′s instructions with some modifications. Briefly, the cells were washed twice with 1× binding buffer, a staining solution containing 50 μL of 1× binding buffer, 5 μL of FITC-Annexin V solution, and 5 μL of ethidium homodimer III solution, and treated for 30 min at room temperature in a protected-light environment. After washing of cells in 1× binding buffer, cells were analyzed under a Biorevo BZ-9000 all-in-one fluorescence microscope (Keyence, Osaka, Japan). The number of apoptotic cells, late apoptotic or necrotic cells, and necrotic cells was quantified as previously described.

For the next data set, the target named is T2, EGFR TK (Homo sapiens, UniProt P00533).
T2 construct: purchased Promega Corporation
T2 sequence (P00533 25-1210): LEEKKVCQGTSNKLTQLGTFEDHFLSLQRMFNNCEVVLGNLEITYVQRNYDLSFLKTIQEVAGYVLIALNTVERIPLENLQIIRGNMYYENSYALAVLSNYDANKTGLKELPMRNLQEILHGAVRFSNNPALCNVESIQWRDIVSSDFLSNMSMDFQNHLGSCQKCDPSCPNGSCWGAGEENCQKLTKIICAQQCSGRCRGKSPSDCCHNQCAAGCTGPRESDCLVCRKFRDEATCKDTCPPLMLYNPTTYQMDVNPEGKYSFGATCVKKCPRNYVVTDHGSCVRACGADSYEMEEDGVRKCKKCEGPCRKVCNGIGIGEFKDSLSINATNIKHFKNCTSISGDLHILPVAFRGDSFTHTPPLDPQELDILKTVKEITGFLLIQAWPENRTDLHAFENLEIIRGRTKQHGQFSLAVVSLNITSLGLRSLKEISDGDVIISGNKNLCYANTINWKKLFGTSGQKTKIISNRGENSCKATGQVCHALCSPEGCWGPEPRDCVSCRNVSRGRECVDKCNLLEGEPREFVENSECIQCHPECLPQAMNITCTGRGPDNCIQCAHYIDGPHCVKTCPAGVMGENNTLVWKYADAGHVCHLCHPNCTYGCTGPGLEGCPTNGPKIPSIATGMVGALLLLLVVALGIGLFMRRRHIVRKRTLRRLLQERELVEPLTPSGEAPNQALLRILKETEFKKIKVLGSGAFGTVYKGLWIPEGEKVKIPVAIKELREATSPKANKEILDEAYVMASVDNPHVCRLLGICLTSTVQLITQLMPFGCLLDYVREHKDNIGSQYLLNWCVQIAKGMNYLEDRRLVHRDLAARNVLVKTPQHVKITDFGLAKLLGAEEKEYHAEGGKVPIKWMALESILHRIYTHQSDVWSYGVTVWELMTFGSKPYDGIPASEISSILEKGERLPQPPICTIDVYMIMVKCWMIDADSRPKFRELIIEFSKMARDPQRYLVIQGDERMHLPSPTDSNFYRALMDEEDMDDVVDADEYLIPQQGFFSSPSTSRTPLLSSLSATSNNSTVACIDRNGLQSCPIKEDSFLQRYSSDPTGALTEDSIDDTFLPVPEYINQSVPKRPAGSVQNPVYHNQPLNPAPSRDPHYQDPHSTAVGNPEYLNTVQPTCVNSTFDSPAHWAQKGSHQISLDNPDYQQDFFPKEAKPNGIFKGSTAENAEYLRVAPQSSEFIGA
Kind of data set: EGFR TK inhibition, kinase profiling / ADP-Glo Kinase Assay. Type of data set: biochemical. The note with it: 4 h incubation at room temperature.

For a further data set, the target named is T3, LCK (Homo sapiens, UniProt P06239).
T3 construct: purchased Promega Corporation
T3 sequence (P06239 whole entry): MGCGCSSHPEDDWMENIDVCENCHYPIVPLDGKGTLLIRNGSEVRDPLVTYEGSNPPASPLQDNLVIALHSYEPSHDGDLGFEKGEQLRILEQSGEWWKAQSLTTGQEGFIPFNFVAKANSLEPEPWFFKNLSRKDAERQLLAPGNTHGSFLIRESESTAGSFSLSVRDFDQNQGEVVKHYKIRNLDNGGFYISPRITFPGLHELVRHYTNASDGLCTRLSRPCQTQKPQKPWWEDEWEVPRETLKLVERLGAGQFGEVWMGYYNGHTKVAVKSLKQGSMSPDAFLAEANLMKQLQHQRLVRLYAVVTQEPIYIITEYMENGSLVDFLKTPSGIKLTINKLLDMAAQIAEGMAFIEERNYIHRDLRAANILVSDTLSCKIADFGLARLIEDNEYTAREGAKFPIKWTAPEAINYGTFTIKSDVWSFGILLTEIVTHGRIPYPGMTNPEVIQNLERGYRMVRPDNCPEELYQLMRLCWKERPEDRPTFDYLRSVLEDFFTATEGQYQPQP
Kind of data set: Kinase selectivity profiling TK-2, LCK. Conditions: 30 µM concentration. The class given is biochemical. On the procedure: as §1

Data set [2] has as its system A549 human lung adenocarcinoma cells. In words: MTT cell viability assay, A549 cells. The note with it: A549, 72 h, read-out: IC50 (µM) A549 Cells.
Method: as §2, §3
In data set [3] the test system is K562 chronic myelogenous leukemia (CML) cells. In words: MTT cell viability assay, K562 cells. Conditions: Homo sapiens, K562, 48 h, read-out: IC50 (µM) K562 Cells.
Method: as §2, §3

T1 sequence (P04626 23-1255): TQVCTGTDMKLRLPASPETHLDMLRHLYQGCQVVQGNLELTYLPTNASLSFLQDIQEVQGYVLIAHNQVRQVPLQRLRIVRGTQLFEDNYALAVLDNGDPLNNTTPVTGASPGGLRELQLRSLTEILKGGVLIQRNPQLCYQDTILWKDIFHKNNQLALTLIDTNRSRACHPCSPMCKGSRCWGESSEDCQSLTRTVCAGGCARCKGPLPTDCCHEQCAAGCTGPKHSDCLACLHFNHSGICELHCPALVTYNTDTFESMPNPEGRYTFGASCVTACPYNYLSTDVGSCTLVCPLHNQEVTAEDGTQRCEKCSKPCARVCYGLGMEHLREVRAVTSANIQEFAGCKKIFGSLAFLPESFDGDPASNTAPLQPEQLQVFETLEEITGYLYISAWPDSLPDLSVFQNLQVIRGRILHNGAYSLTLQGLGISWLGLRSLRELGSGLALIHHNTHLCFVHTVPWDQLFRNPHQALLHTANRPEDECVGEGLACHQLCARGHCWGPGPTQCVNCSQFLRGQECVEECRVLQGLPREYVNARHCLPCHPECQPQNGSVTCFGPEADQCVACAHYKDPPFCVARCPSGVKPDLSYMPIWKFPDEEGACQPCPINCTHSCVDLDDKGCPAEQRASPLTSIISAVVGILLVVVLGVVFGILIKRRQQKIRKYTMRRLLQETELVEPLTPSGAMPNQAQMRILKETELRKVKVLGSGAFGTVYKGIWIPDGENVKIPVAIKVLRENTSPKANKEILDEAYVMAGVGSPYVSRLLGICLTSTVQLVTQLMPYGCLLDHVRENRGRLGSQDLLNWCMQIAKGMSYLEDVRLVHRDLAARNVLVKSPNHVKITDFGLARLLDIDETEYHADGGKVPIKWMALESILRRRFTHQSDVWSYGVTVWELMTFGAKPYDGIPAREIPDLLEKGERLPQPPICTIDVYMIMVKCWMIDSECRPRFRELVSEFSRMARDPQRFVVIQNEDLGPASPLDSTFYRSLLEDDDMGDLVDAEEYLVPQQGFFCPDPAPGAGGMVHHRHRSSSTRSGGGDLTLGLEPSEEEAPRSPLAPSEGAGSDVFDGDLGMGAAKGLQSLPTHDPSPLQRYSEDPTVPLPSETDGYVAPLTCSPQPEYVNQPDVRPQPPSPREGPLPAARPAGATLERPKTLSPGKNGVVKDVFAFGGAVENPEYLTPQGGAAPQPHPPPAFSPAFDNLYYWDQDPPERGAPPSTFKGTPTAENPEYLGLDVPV
Method for EGFR TK: Manufacturer′s instructions (Promega Corporation, Madison, WI, USA) were applied for the kinase profiling assay protocol (TK-1 and TK-2) with small changes [40, 41, 42]. […] The kinase working stocks (2 µL), 2 µL of the ATP/substrate working stocks, and 1 µL of the tested compound solution (3–100 µM) and erlotinib solution (0.01–100 µM) or 5% DMSO solution in the 384-well plate were used for the kinase reactions. Following the 4 h of incubation at room temperature, the activity of kinases was screened by means of the ADP-Glo Kinase Assay (Promega Corporation, Madison, WI, USA) based on the manufacturer′s protocol. The Infinite M1000 microplate reader (Tecan, Grödig, Austria) was used to measure the kinase inhibitory effects of the compounds in a dose-response manner. Besides, the IC50 values of the tested compounds were determined using ImageJ software.

`COc1cc2c(cc1Cl)Cc1c-2nn(-c2ccc(Br)cc2)c1-c1ccc(N2CCCCC2)cc1` [Compound 4, 6-Chloro-7-methoxy-2-(4-bromophenyl)-3-[4-(piperidin-1-yl)phenyl]-2,4-dihydroindeno[1,2-c]pyrazole]: the melting point was in the range of 125 to 126 °C. For the same compound, in data set [1], the “cytotoxicity towards PBMCs (in words)” value is “no significant cytotoxicity” and the IC50 came out at 19.6 ± 4.25 µM. Also, the “HER2 inhibition compared to erlotinib” value at HER2 is on record as “more significantly than erlotinib”. Further, the “percentage of A549 cells undergoing apoptosis” value in the data set with A549 cells worked out at 56.30%. 17.6 µM corresponded to half-maximal inhibition against EGFR TK (IC50). Further, the “LCK inhibition compared to erlotinib” value at LCK is listed as “more significantly than erlotinib”. Further, in data set [2], the IC50 was 6.13 ± 1.42 µM. Moreover, in data set [3], the IC50 stood at 2.65 ± 0.75 µM.

As for `COc1cc2c(cc1Cl)Cc1c-2nn(-c2ccc(Cl)cc2)c1-c1ccc(N2CCCCC2)cc1` [Compound 3, 6-Chloro-7-methoxy-2-(4-chlorophenyl)-3-[4-(piperidin-1-yl)phenyl]-2,4-dihydroindeno[1,2-c]pyrazole], the IC50 in data set [2] is > 10 µM.

`COc1cc2c(cc1Cl)Cc1c-2nn(-c2ccc(F)cc2)c1-c1ccc(N2CCCCC2)cc1` [Compound 2, 6-Chloro-7-methoxy-2-(4-fluorophenyl)-3-[4-(piperidin-1-yl)phenyl]-2,4-dihydroindeno[1,2-c]pyrazole] displayed a melting point of 188 to 190 °C. Further, in data set [2], the IC50 was > 10 µM.

Take `COc1cc2c(cc1Cl)Cc1c-2nn(-c2ccc(C#N)cc2)c1-c1ccc(N2CCCCC2)cc1` [Compound 5, 6-Chloro-7-methoxy-2-(4-cyanophenyl)-3-[4-(piperidin-1-yl)phenyl]-2,4-dihydroindeno[1,2-c]pyrazole]: the IC50 in data set [2] is > 10 µM.

For the compound `COc1cc2c(cc1Cl)Cc1c-2nn(-c2ccc(C)cc2)c1-c1ccc(N2CCCCC2)cc1` [Compound 7, 6-Chloro-7-methoxy-2-(4-methylphenyl)-3-[4-(piperidin-1-yl)phenyl]-2,4-dihydroindeno[1,2-c]pyrazole], the melting point was in the range of 123 to 124 °C. In addition, in data set [1], the “cytotoxicity towards PBMCs (in words)” value is reported as “no significant cytotoxicity” and the IC50 was > 100 µM. At EGFR TK, the IC50 was 46.7 ± 7.04 µM. The IC50 in data set [2] is 8.67 ± 2.18 µM. Also, the IC50 in data set [3] is 2.76 ± 0.83 µM.

As to `COc1cc2c(cc1Cl)Cc1c-2nn(-c2ccc(S(C)(=O)=O)cc2)c1-c1ccc(N2CCCCC2)cc1` [Compound 6, 6-Chloro-7-methoxy-2-(4-(methylsulfonyl)phenyl)-3-[4-(piperidin-1-yl)phenyl]-2,4-dihydroindeno[1,2-c]pyrazole], the melting point lay in the range of 116 to 117 °C. The IC50 in data set [2] is > 10 µM.

Take `COc1cc2c(cc1Cl)Cc1c-2nn(-c2ccccc2)c1-c1ccc(N2CCCCC2)cc1` [Compound 1, 6-Chloro-7-methoxy-2-phenyl-3-[4-(piperidin-1-yl)phenyl]-2,4-dihydroindeno[1,2-c]pyrazole]: in data set [1], the “cytotoxicity towards PBMCs (in words)” value is reported as “no significant cytotoxicity”. The IC50 in data set [1] was found to be 95.7 ± 11.7 µM; against EGFR TK it was 55.3 ± 8.68 µM; in data set [2], 7.99 ± 1.84 µM; in data set [3], 3.49 ± 0.92 µM.

With `C#Cc1cccc(Nc2ncnc3cc(OCCOC)c(OCCOC)cc23)c1` [Erlotinib, reference compound], the IC50 in data set [1] amounted to 44.3 ± 7.84 µM; in data set [2], 19.7 ± 3.15 µM; in data set [3], 29.6 ± 5.26 µM. Besides, in the data set with A549 cells, the “percentage of A549 cells undergoing apoptosis” value is 53.60%.
